Test results from ChEMBL document CHEMBL1833871, “3D QSAR and docking study of flavone derivatives as potent inhibitors of influenza H1N1 virus neuraminidase” (Bioorg Med Chem Lett, 2011).

Molecular target: Neuraminidase (Influenza A virus (A/Puerto Rico/8/1934(H1N1)), UniProt P03468)
Assay: Inhibition of influenza A virus A/PR/8/34(H1N1) neuraminidase assessed as fluorescent product using MUNANA as substrate after 60 mins by fluorescence analysis

Neuraminidase (Influenza A virus (A/Puerto Rico/8/1934(H1N1)), UniProt P03468), sequence (P03468 whole entry): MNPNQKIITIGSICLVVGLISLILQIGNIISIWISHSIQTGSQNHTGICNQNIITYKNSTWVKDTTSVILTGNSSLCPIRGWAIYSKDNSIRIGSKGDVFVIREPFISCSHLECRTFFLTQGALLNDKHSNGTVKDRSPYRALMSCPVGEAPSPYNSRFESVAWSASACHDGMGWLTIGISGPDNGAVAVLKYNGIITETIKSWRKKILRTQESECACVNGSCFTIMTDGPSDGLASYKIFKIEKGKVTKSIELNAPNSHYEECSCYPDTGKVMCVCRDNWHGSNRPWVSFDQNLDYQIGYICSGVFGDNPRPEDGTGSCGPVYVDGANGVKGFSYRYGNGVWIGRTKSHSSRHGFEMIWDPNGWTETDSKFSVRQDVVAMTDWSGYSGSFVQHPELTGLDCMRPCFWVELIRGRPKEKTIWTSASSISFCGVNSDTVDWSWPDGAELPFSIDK

Compound	IC50 [µM]
O=c1cc(-c2ccc(O)cc2)oc2c(CN3CCN(Cc4ccccc4)CC3)c(O)cc(O)c12	48.5
O=c1cc(-c2ccc(O)cc2)oc2c(CN3CCCC(O)C3)c(O)cc(O)c12 (stereo not given)	45.3
O=c1cc(-c2ccccc2)oc2c(CN3CCC(CO)CC3)c(O)c(O)c(O)c12	470
CN1CCN(Cc2c(O)cc(O)c3c(=O)cc(-c4ccccc4)oc23)CC1	431
O=c1cc(-c2ccc(O)cc2)oc2c(CN3CCOCC3)c(O)cc(O)c12	50.5
O=c1cc(-c2ccc(O)cc2)oc2c(CN3CCC(CO)CC3)c(O)cc(O)c12	40.9
C[C@@H]1COC[C@H](C)N1Cc1c(O)cc(O)c2c(=O)cc(-c3ccc(O)c(O)c3)oc12	43.5
O=c1cc(-c2ccccc2)oc2c(CN3CCC(O)CC3)c(O)cc(O)c12	295
O=c1cc(-c2ccccc2)oc2c(CN3CCC(CO)CC3)c(O)cc(O)c12	83.7
O=c1cc(-c2ccc(O)c(O)c2)oc2c(CN3CCC(CO)CC3)c(O)cc(O)c12	64.2
O=c1cc(-c2ccccc2)oc2c(CN3CCC(O)CC3)c(O)c(O)c(O)c12	91.5
CN1CCN(Cc2c(O)cc(O)c3c(=O)cc(-c4ccc(O)cc4)oc23)CC1	148
O=c1cc(-c2ccccc2)oc2c(CN3CCCC3)c(O)cc(O)c12	182
O=c1cc(-c2ccccc2)oc2c(CN3CCOCC3)c(O)cc(O)c12	448
CN1CCN(Cc2c(O)c(O)c(O)c3c(=O)cc(-c4ccccc4)oc23)CC1	302
O=c1cc(-c2ccccc2)oc2c(CN3CCCC(O)C3)c(O)c(O)c(O)c12 (stereo not given)	68.2
CC1CCCCN1Cc1c(O)cc(O)c2c(=O)cc(-c3ccc(O)c(O)c3)oc12 (stereo not given)	161
O=c1cc(-c2ccc(O)c(O)c2)oc2c(CN3CCCC(O)C3)c(O)cc(O)c12 (stereo not given)	63.6

Compound	IC50 [µM]
O=c1cc(-c2ccccc2)oc2c(CN3CCCC(O)C3)c(O)cc(O)c12 (stereo not given)	259
CN1CCN(Cc2c(O)cc(O)c3c(=O)cc(-c4ccc(O)c(O)c4)oc23)CC1	53.8
O=c1cc(-c2ccccc2)oc2c(CN3CCN(CCO)CC3)c(O)cc(O)c12	135
O=c1cc(-c2ccc(O)c(O)c2)oc2c(CN3CCOCC3)c(O)cc(O)c12	81.9
O=c1cc(-c2ccccc2)oc2c(CN3CCN(CCO)CC3)c(O)c(O)c(O)c12	276
CC1CCCN(Cc2c(O)cc(O)c3c(=O)cc(-c4ccc(O)cc4)oc23)C1 (stereo not given)	52.5
O=c1cc(-c2ccc(O)cc2)oc2c(CN3CCCC3)c(O)cc(O)c12	44.5
O=c1cc(-c2ccc(O)cc2)oc2c(CN3CCC(Cc4ccccc4)CC3)c(O)cc(O)c12	46.1
C[C@@H]1COC[C@H](C)N1Cc1c(O)c(O)c(O)c2c(=O)cc(-c3ccccc3)oc12	591
O=c1cc(-c2ccccc2)oc2c(CN3CCCC3)c(O)c(O)c(O)c12	107
CC1CCN(Cc2c(O)cc(O)c3c(=O)cc(-c4ccc(O)cc4)oc23)CC1	164
O=c1cc(-c2ccccc2)oc2c(CN3CCCCC3)c(O)c(O)c(O)c12	104
CC1CCCCN1Cc1c(O)c(O)c(O)c2c(=O)cc(-c3ccccc3)oc12 (stereo not given)	99.7
O=c1cc(-c2ccc(O)cc2)oc2c(CN3[C@H](O)COC[C@@H]3O)c(O)cc(O)c12	64
O=c1cc(-c2ccc(O)cc2)oc2c(CN3CCC[C@H]3CO)c(O)cc(O)c12	49.7
O=c1cc(-c2ccc(O)cc2)oc2c(CN3CCC(O)CC3)c(O)cc(O)c12	168
O=c1cc(-c2ccc(O)c(O)c2)oc2c(CN3CCCCC3)c(O)cc(O)c12	62.9
